Blank lines part the entries; values can stand above or below the compound they belong to. Where no end group is shown, it is not given here.
Legend:
[1] = Nasal administration of insulin with peptides of SEQ ID NOs:1 to 6 (Example 5); details: for AAC: blood glucose reduction
Source text: The prepared solutions were subjected to the evaluation in the same manner as in Example 1.

[2] = Nasal administration of insulin, dependency on peptide concentration (Example 2); details: rats, only insulin, no peptide
Procedure: (§1) Male SD rats having a body weight of about 200 g were fasted for 24 hours and anesthetized by intraperitoneal injection of 50 mg/kg of pentobarbital, followed by incision of the cervical part to expose trachea. […] The tip of the tube to be inserted into the choanae was preliminarily tightly sealed with absorbent cotton and an adhesive. To prevent leakage of the drug solution, the nasopalatine duct in maxilla opening into the oral cavity was closed with a synthetic adhesive (Aron Alpha A; manufactured by Daiichi Sankyo Company, Limited).

[3] = Nasal administration of insulin with peptide to rats (Example 1); assay type: in vivo, rat; details: male SD rats, insulin 10 IU/kg with 0.5 mM peptide or insulin only
Procedure: as §1

[4] = rats, nasal, insulin 1 IU/kg with 0.5 mM L-amino acid peptide or no peptide
[5] = blood insulin, rats, nasal, insulin 1 IU/kg with 0.5 mM L-amino acid peptide or no peptide
[6] = male, SD, rat, in vivo, inhaled or intranasal

Tmax [1, 6]: 11.3 min
Compound: KQIKIWFQNKKMKWKK-OH [SEQ ID NO: 4]
AAC [1, 4]: 10.3 % glu. reduc. h | PA (pharmaceutical availability, based on changes in blood glucose level) [1, 4]: 11.2%

Tmax [1, 6]: 16.0 min
Compound: KQIRIWFQNKKMRWRR-OH [SEQ ID NO: 5]
AAC [1, 4]: 21.5 % glu. reduc. h | PA (pharmaceutical availability, based on changes in blood glucose level) [1, 4]: 23.4%

Tmax [1, 6]: 18.3 min
Compound: RQIRIWFQNRRMRWRR-OH [SEQ ID NO: 3]
AAC [1, 4]: 17.1 % glu. reduc. h | PA (pharmaceutical availability, based on changes in blood glucose level) [1, 4]: 18.6%

Continued, compound first:

Compound: CC[C@H](C)[C@H](NC(=O)[C@H](CCCCN)NC(=O)[C@@H](NC(=O)[C@H](CCC(N)=O)NC(=O)[C@@H](N)CCCNC(=N)N)[C@@H](C)CC)C(=O)N[C@@H](Cc1c[nH]c2ccccc12)C(=O)N[C@@H](Cc1ccccc1)C(=O)N[C@@H](CCC(N)=O)C(=O)N[C@@H](CC(N)=O)C(=O)N[C@@H](CCCNC(=N)N)C(=O)N[C@@H](CCCNC(=N)N)C(=O)N[C@@H](CCSC)C(=O)N[C@@H](CCCCN)C(=O)N[C@@H](Cc1c[nH]c2ccccc12)C(=O)N[C@@H](CCCCN)C(=O)N[C@@H](CCCCN)C(=O)N[C@@H](CCCNC(=N)N)C(=O)N[C@@H](CCCNC(=N)N)C(=O)N[C@@H](CCCNC(=N)N)C(=O)N[C@@H](CCCNC(=N)N)C(=O)O [SEQ ID NO: 6]
AAC [1, 4]: 14.4 % glu. reduc. h | AUC [1, 5]: 55.2 μU · h./mL | Cmax [1, 5]: 187.3 μU/mL | PA (pharmaceutical availability, based on changes in blood glucose level) [1, 4]: 15.7%

Compound: KKWKMRRNQFWIKIQR-OH [SEQ ID NO: 2]
AAC [1, 4]: 13.5 % glu. reduc. h | Tmax [1, 6]: 11.7 min | PA (pharmaceutical availability, based on changes in blood glucose level) [1, 4]: 14.7%

Compound: insulin [reference compound]
AAC [1, 4]: 4.3 % glu. reduc. h | AUC [1, 5]: 6.4 μU · h./mL | Tmax [1, 5]: 10.8 min | BA (bioavailability, based on changes in blood insulin level) [1, 4]: 2.3% | PA (pharmaceutical availability, based on changes in blood glucose level) [1, 4]: 4.7% | increase in the blood insulin level (FIG. 8) [1, 4]: could be hardly observed | bioavailability of insulin [2]: 1.7% | blood insulin level (FIG. 1) [3]: hardly exhibited increase in the blood insulin level | bioavailability (BA) of insulin ([3]; vs subcutaneous insulin): 0.8%

Reference: patent publication US8895503B2, “Pharmaceutical composition for transnasal administration of peptide hormones or cytokines” (Toray Industries, Inc., priority 2008, dated 2014)
